Source: patent US7863446B2, “Heterocycles” (Orchid Research Laboratories Limited, priority 2006, dated 2011)
Each block holds one molecule with its values, some of them ahead of it.

Experiments:
HCT-116 = experiment: Anti-cancer screen (MTT), HCT-116; format: cell-based; settings: Homo sapiens, HCT-116, 48 hours
Protocol: (§1) Experimental drugs are screened for anti-cancer activity in three cell lines for their GI50, TG1 and LC50 values (using 5 concentrations for each compound). The cell lines are maintained in DMEM containing 10% fetal bovine serum. 96 well microtiter plates are inoculated with cells in […] for 24 hours at 37° C., 5% CO2, 95% air and 100% relative humidity. 5000 HCT116 cells/well, 5000 NCIH460 cells/well, 10000 U251 cells/well and 5000 MDAMB231 cells/well are plated. A separate plate with these cell lines is also inoculated to determine cell viability before the addition of the compounds (T0).
(§2) Addition of Experimental Drugs
(§3) Following 24-hour incubation, experimental drugs are added to the 96 well plates. Each plate contains one of the above cell lines and the following in triplicate: 5 different concentrations (0.01, 0.1, 1, 10 and 100 μM) of 4 different compounds, appropriate dilutions of a cytotoxic standard and control (untreated) wells. Compounds are dissolved in dimethylsulfoxide (DMSO) to make 20 mM stock solutions, on the day of drug addition and frozen at −20° C. Serial dilutions of these 20 mM stock solutions are made in complete growth medium such that 100 μL of these drug solutions in medium, of final concentrations equaling 0.01, 0.1, 1, 10 and 100 μM can be added to the cells in triplicate. Standard drugs whose anti-cancer activity has been well documented and which are regularly used are doxorubicin and SAHA.
(§4) Cells are incubated with compounds for 48 hours followed by the addition of 10 μL 3-(4,5-Dimethyl-2-thiazolyl)-2,5-diphenyl-2H-tetrazolium (MTT) solution per well and a subsequent incubation at 37° C., 5% CO2, 95% air and 100% relative humidity, protected from light. After 4 hours, well contents are aspirated carefully followed by addition of 150 μL DMSO per well. Plates are agitated to ensure solution of the formazan crystals in DMSO and absorbance read at 570 nm.
(§5) Calculation of GI50, TGI and LC50
(§6) Percent growth is calculated for each compound's concentration relative to the control and zero measurement wells (T0; viability right before compound addition).
(§7) If a test well's O.D. value is greater than the T0 measurement for that cell line % Growth=(test−zero)/(control−zero)×100
(§8) If a test well's O.D. value is lower than the T0 measurement for that cell line, then % Growth=(test−zero)/zero×100 Plotting % growth versus experimental drug concentration, GI50 is the concentration required to decrease % growth by 50%; TGI is the concentration required to decrease % growth by 100% and LC50 is the concentration required to decrease % growth by 150%.

[1] = target: T1, purified recombinant COX-2 (Homo sapiens, UniProt P35354); experiment: COX-2 enzyme based assay; format: biochemical; settings: NA = No activity, read-out: % Inhibition in rEnzyme Assay COX-2
T1 sequence (P35354 18-604): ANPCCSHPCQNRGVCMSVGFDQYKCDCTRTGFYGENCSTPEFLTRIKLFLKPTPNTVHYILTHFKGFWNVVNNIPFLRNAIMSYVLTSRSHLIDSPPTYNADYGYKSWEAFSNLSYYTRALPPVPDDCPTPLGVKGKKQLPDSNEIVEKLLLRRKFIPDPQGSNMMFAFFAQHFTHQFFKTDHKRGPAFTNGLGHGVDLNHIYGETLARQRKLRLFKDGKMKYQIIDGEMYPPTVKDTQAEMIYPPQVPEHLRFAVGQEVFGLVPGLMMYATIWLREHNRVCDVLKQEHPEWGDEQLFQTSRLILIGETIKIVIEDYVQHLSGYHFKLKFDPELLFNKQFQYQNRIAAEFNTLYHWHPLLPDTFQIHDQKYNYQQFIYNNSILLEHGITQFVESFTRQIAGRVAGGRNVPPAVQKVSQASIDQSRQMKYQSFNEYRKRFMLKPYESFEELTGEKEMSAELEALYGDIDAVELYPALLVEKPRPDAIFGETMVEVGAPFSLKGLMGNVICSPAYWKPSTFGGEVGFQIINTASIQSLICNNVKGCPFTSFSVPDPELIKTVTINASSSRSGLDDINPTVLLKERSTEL
Procedure, shortened: (§9)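 Purified recombinant enzyme converted arachidonic acid to PGH2 at 37° C with or without test compound; stopped with 1M HCl after 2 minutes. PGH2 reduced by SnCl2 to PGF2α, quantified by enzyme immunoassay; inhibition inferred from reduced prostanoid.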

[2] = target: purified recombinant COX-1 (Homo sapiens, UniProt P23219); experiment: COX-1 enzyme based assay; format: biochemical; settings: NA = No activity, read-out: % Inhibition in rEnzyme Assay COX-1
Procedure, shortened: as §9

DU-145 = experiment: Anti-cancer screen (MTT), DU-145; format: cell-based; settings: Homo sapiens, DU-145, 48 hours
NCI-H460 = experiment: Anti-cancer screen (MTT), NCI-H460; format: cell-based; settings: Homo sapiens, NCI-H460, 48 hours
Protocol: as §1, §2, §3, §4, §5, §6, §7, §8

TNF-α = experiment: In vitro measurement of TNF-α in human PBMC (LPS stimulated); format: cell-based; settings: for inhibition at 1 µM: NA = No activity, read-out: TNF-α Inhibition (%) at Conc. (1 μM); for inhibition at 10 µM: read-out: TNF-α Inhibition (%) at Conc. (10 μM)
Procedure, shortened: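 Healthy-volunteer PBMC (0.5 million/well) in RPMI were pre-incubated with compound 15 min at 37 °C. They were then stimulated with E. coli B4 LPS 1 μg/ml for 18 h at 37 °C, 5% CO2. TNF-α in culture medium was measured by ELISA.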

Male wistar rats = experiment: Carrageenan induced paw edema test in rat; format: in vivo; settings: oral, 3 hours after carrageenan
Protocol: Carrageenan Induced Paw Edema Test in Rat
The carrageenan paw edema test was performed as described by Winter et al (Proc. Soc. Exp. Biol. Med, 111, 544, 1962). Male wistar rats were selected with body weights equivalent within each group. The rats were fasted for 18 hours with free access to water. The rats were dosed orally with the test compound suspended in the vehicle containing 0.25% carboxymethylcellulose and 0.5% Tween 80. The control rats were administered with vehicle alone. After an hour, the rats were injected with 0.1 ml of 1% Carrageenan solution in 0.9% saline into the sub-plantar surface of the right hind paw. Paw volume was measured using digital plethysmograph before and after 3 hours of carrageenan injection. The average of foot swelling in drug treated animals was compared with that of the control animals. Anti-inflammatory activity was expressed as the percentage inhibition of edema compared with control group [Arzneim-Forsch/Drug Res., 43 (I), 1, 44-50, 1993; Representative results of edema inhibition are shown in the Table VI.

Animals (male wistar) = experiment: Ulcerogenic potential; format: in vivo; settings: oral, 4 hours after administration
Protocol: In order to evaluate the compound's role on the ulcer formation, the animals were sacrificed and the stomach was taken out and flushed with 1% formalin. Animals (male wistar. 200 g) were fasted for 18 hours with free access to water and the test compounds were suspended in 0.5% Tween 80 and 0.25% CMC (carboxymethylcellulose) solution to make a uniform suspension. After 4 hours of oral administration of test compounds, all the animals were sacrificed by cervical dislocation. The stomach was dissected carefully and filled up with a sterile saline solution and embedded in 6% formalin solution. […] The test compound treated groups were compared with the vehicle treated groups. […]

IL-6 = experiment: In vitro measurement of IL-6 in human PBMC (LPS stimulated); format: cell-based; settings: 10 μM, read-out: IL-6 Inhibition (%) Conc. (10 μM)
Protocol: In Vitro Measurement of Interleukin-6(IL-6)
This assay determins the effect of test compounds on the production of IL-6 in human PBMC (Physiol. Res. 52: 593-598, 2003). Compounds were tested for their ability to inhibit the activity of IL-6 in human PBMC. PBMC were isolated from blood using BD Vacutainer CPT™ Cell preparation tube (BD Bio Science) and suspended in RPMI medium. The test compounds were pre-incubated with PBMC (0.5 million/incubation well) for 15 minutes at 37° C. and then stimulated with Lipopolysaccharide (Escherichia coli: B4; 1 μg/ml) for 18 hours at 37° C. in 5% CO2. The levels of IL-6 in cell culture medium were estimated using enzyme-linked immunosorbent assay performed in a 96 well format as per the procedure of the manufacturer (Cayman Chemical, Ann Arbor, USA).

IL-12 = IL-12 inhibition; format: cell-based
PDE4 = PDE4 activity; format: biochemical; settings: source Human U937 cells
Protocol: PDE4 Activity PDE4 inhibition was measured by following a literature assay procedure (Cortizo J et al., Br J Pharmacol., 1993, 108: 562-568. The assay method involves the following conditions. • Source: Human U937 cells • Substrate: 1.01 μM [^3H] camp+camp • Vehicle: 1% DMSO • Pre-Incubation Time/Temperature: 15 minutes at 25° C. • Incubation Time/Temperature. 20 minutes at 25° C. • Incubation buffer: 50 mM Tris-HCl, pH 7.5, 5 mM MgCl2 • Quantitation method: Quantitation of [^3H] Adenosine • Significance criteria: >50% of max stimulation or inhibition The results are tabulated as shown in the table XIII.

Sequence of purified recombinant COX-1 (P23219 24-599): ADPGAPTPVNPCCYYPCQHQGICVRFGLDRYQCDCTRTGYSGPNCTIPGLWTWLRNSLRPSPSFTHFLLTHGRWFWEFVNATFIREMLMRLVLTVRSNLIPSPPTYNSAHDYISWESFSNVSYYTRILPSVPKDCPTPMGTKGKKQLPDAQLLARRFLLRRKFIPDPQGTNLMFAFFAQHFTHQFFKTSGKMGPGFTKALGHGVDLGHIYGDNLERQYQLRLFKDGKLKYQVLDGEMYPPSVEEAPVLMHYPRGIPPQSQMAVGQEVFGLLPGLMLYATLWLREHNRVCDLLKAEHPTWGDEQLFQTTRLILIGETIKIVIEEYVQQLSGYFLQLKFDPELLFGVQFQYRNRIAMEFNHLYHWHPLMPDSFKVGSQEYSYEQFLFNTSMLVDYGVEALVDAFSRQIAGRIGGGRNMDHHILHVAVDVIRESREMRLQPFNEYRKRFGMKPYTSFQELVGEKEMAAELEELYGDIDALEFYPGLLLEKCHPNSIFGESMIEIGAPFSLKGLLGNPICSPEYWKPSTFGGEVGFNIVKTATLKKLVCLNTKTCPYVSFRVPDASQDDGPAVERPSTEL

GI50 (HCT-116): 2.5 µM
inhibition at 1 µM ([1]; 1 μM): 17.3%
inhibition at 10 µM ([1]; 10 μM): 48.9%
inhibition at 1 µM ([2]; 1 μM): 33.8%
inhibition at 10 µM ([2]; 10 μM): 50.4%
GI50 (DU-145): 3.5 µM
GI50 (NCI-H460): 8.5 µM
Structure (SMILES): CNS(=O)(=O)c1ccc(-c2c(N)nc(C(F)(F)F)nc2-c2ccc(S(C)(=O)=O)cc2)cc1 [Example 2, 4-{4-Amino-6-[4-(methylsulfonyl)phenyl]-2-(trifluoromethyl)pyrimidin-5-yl}-N-methylbenzenesulfonamide]

Structure (SMILES): CNc1nc(C(F)(F)F)nc(-c2ccc(S(C)(=O)=O)cc2)c1-c1ccc(S(=O)(=O)NC)cc1 [Example 5, 4-{4-(Methylamino)-6-[4-(methylsulfonyl)phenyl]-2-(trifluoromethyl)pyrimidin-5-yl}-N-methylbenzenesulfonamide]
inhibition at 1 µM (TNF-α): 35.9%
inhibition at 10 µM (TNF-α): 56.3%
Inhibition of edema (%) at 5 mg/kg (Male wistar rats): 14.5%
Ulcer incidence at 5 mg/kg (Animals (male wistar)): Nil

GI50 (HCT-116): 6 µM
GI50 (DU-145): 4 µM
GI50 (NCI-H460): 3.75 µM
Structure (SMILES): CS(=O)(=O)c1ccc(-c2nc(C(F)(F)F)nc(N3CCN(C(=O)c4ccc([N+](=O)[O-])o4)CC3)c2-c2ccccc2)cc1 [Example 38, 6-[4-(Methylsulfonyl)phenyl]-4-[4-(5-nitro-2-furoyl)piperazin-1-yl]-5-phenyl-2-(trifluoromethyl)pyrimidine]

Structure (SMILES): CS(=O)(=O)c1ccc(-c2nc(C(F)(F)F)nc(N3CCN(S(=O)(=O)c4ccc(F)cc4Cl)CC3)c2-c2ccccc2)cc1 [Example 157, 4-{4-[(2-Chloro-4-fluorophenyl)sulfonyl]piperazin-1-yl}-6-(4-methylsulfonylphenyl)-5-phenyl-2-(trifluoromethyl)pyrimidine]
inhibition at 10 µM (IL-6): 65.7%
inhibition at 1 µM (TNF-α): 33.5%
inhibition at 10 µM (TNF-α): 91.3%
inhibition at 1 µM (IL-12; read-out: IL-12 Inhibition (%) Conc. (1 μM)): 69%
inhibition at 10 µM (IL-12; read-out: IL-12 Inhibition (%) Conc. (10 μM)): 98.3%

Structure (SMILES): NS(=O)(=O)c1cccc(-c2c(-c3ccccc3)nc(C(F)(F)F)nc2N2CCN(C(=O)C(F)(F)F)CC2)c1 [Example 172, 3-{6-Phenyl-4-[4-(trifluoroacetyl)piperazin-1-yl]-2-(trifluoromethyl)pyrimidin-5-yl}benzenesulfonamide]
PDE4 inhibition at 10 μM (%) (PDE4): 87%

Structure (SMILES): Fc1ccc(-c2nc(C(F)(F)F)nc(NC3CC3)c2-c2ccccc2)cc1 [Example 174, N-Cyclopropyl-6-(4-fluorophenyl)-5-phenyl-2-(trifluoromethyl)pyrimidin-4-amine]
PDE4 inhibition at 10 μM (%) (PDE4): 88%

Structure (SMILES): NS(=O)(=O)c1cccc(-c2c(-c3ccccc3)nc(C(F)(F)F)nc2N2CCC(=O)CC2)c1 [Example 178, 3-[6-Phenyl-4-(4-oxopiperidin-1-yl)-2-(trifluoromethyl)pyrimidin-5-yl]benzenesulfonamide]
PDE4 inhibition at 10 μM (%) (PDE4): 84%
